Results reported in publication PMC7501730, “Discovery of novel small molecule inhibitors of S100P with in vitro anti-metastatic effects on pancreatic cancer cells” (European Journal of Medicinal Chemistry, 2020).
pIC50: −log10 of the molar value. Where two headings read alike, the source gives them in different places.

Legend:
BxPC-3 cells = experiment: LDH release from cells in upper Transwell chamber, BxPC-3; assay type: cell-based, Human; details: BxPC-3, 48 h; hit compounds 10 μM, cromolyn 10, 100 and 300 μM
Description: (§1) In order to exclude any possibility that reduced cell invasiveness was due to cell death during the time period of the assay, the viability of cells in the upper Transwell® chamber was assessed via measurement of LDH release. […] (Supplementary Data).
(§2) Figure S2: No significant difference in cell toxicity, measured by LDH release, is observed between treated and untreated cells in the Transwell® invasion assay. Cytotoxicity was measured using the medium recovered from the upper chamber of each Transwell ® chamber which contained BxPC-3 (A) and Panc-1 (B) cells treated with cromolyn (10 µM, 100 µM, and 300 µM) and hit compounds (10 µM) and incubated for 48 h. Data are the mean ± SEM of three independent experiments (n=3). One-way ANOVA assessed significance, and Dunnett post-hoc test is denoted by ns=P>0.05 in comparison to untreated control.

[1] = tested on: Panc-1 cells (S100P-negative); experiment: LDH release cytotoxicity assay, Panc-1; assay type: cell-based, Human; details: Panc-1, 10 μM, over three days incubation, compared to vehicle control
Description: Metabolic activity and cytotoxicity/cytolysis were measured with the MTS (CellTiter® 96 AQueous One Solution assay, Promega) and LDH release (CytoTox-ONE™ Homogeneous Membrane Integrity assay, Promega) assays respectively, in S100P-expressing (BxPC-3) and S100P-negative (Panc-1) cell lines, at a compound concentration of 10 μM. Cromolyn was used as a positive control. […]
1 × 10^5 Panc-1 cells and 1x10^5 BxPC-3 cells were plated and allowed to adhere for 24 h; the cells were treated with cromolyn or the hit compounds for up to 3 days. […] MTS data was calculated in the following manner: OD for background absorbance was subtracted and all samples normalized to untreated cells in order to ascertain whether any compound-dependent effect occurred.
(§3) Since formazan formation is proportional to LDH release, data was calculated by subtracting the OD background and plotting the mean ± SEM.
10^5 Panc- 1 cells were treated with 10 µM hit compounds for 24 hours, and the effect on LDH staining for each time point measured by fluorescence microplate reader.

Panc-1 cells = experiment: LDH release from cells in upper Transwell chamber, Panc-1; assay type: cell-based, Human; details: Panc-1, 48 h; hit compounds 10 μM, cromolyn 10, 100 and 300 μM
Description: as §1, §2

S100P-RAGE interaction = target: T1, S100P-RAGE interaction (Homo sapiens, UniProt P25815); experiment: ELISA of S100P-RAGE binding inhibition; details: for pIC50: read-out: Estimated IC50; for ELISA inhibition: concentration with significant inhibition of S100P-RAGE binding, asterisks = significance by one-way ANOVA
T1 construct: His tag (N); made in house; host or cells: Escherichia coli BL21*
T1 sequence (P25815 1-95): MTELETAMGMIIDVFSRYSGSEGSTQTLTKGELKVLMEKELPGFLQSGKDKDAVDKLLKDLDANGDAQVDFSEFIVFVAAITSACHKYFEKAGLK
Description: The purchased computational screening hits were subjected to initial biological testing for inhibition of S100P-RAGE binding (ELISA), with cromolyn as positive control, using an adaptation of the reported ELISA for S100 family members.
Fig. 2 Effects of compounds 1–14 on S100P binding to RAGE. Human S100P (2 μM) coated wells were incubated with increasing concentrations of the compound tested, in triplicate, and exposed to human RAGE-Fc (100 nM) followed by goat anti-human secondary antibody to detect RAGE bound S100P. Data are compared to S100P/RAGE binding with no inhibitor (DMSO, 100%) and are presented as mean ± SEM; data is significant by one way ANOVA, where ∗ = p < 0.05, ∗∗ = p < 0.01 and ∗∗∗ = p < 0.001; n = 9 from 3 plates.
To generate human S100P recombinant protein, a pQE-30 ([…]) plasmid encoding S100P with N-terminal histidine tags (gifted by Dr Igor Barsukov, Liverpool University, UK), was transformed into BL21∗ competent Escherichia coli cells. Recombinant protein was purified using a HisTrap Nickel-nitrilotriacetic acid (Ni-NTA) agarose column (GE Healthcare, UK).
Purified recombinant S100P (2μM/well) in phosphate buffer (PBS; 137 mM NaCl, 2.7 mM KCl, 10 mM Na2HPO4, 1.8 mM KH2PO4, pH 7.4; supplemented with 1 mM CaCl2, 10 μM ZnCl2, and 0.5 mM MgCl2) was used for coating a 96 well plate (NunclonDelta, Fisher), and incubated overnight at 37 °C.
Following washing, S100P non-specific binding sites were blocked with 1% bovine serum albumin (BSA; Fisher, UK) in PBS for 2 h at 37 °C. Following three washes, S100P was incubated with increasing concentrations of compounds, in parallel to cromolyn and DMSO treated wells, all in triplicate. Then 30 nM recombinant human receptor for advanced glycation end products (rh/RAGE-Fc; R&D Systems) was added and incubated for 1 h at 37 °C. Controls included a negative control (S100P protein, no RAGE-Fc), a positive control (S100P protein plus RAGE), and vehicle control (0.001% DMSO in PBS) were included in each plate. After three washes in PBS, all wells were exposed to goat anti-human HRP conjugate (1:1000; Millipore) for 1 h at 37 °C in order to detect bound receptors. Subsequent to washes, wells were incubated for 20 min in the dark with 3,3′,5,5′-tetramethylbenzidene (TMB) substrate (Sigma, UK). Plates were read at 450 nm using a Multiskan Ascent spectrophotometer (Fisher Scientific, UK). All sample readings were normalized to the positive control (S100P plus RAGE-Fc). Statistical analysis was performed and graphs plotted using the GraphPad Prism software in the following way: One Way ANOVA was used to compare the effects of concentration of each compound to the effects of vehicle control (DMSO), and p values of <0.05 were considered statistically significant. A post hoc analysis was conducted using Dunnetts multiple comparisons test; results are indicated by ∗ = p < 0.05; ∗∗ = p < 0.01 and ∗∗∗ = p < 0.001.

[2] = tested on: BxPC-3 cells (S100P-expressing); experiment: LDH release cytotoxicity assay, BxPC-3; assay type: cell-based, Human; details: BxPC-3, 10 μM, over three days incubation, compared to vehicle control
Description: Metabolic activity and cytotoxicity/cytolysis were measured with the MTS (CellTiter® 96 AQueous One Solution assay, Promega) and LDH release (CytoTox-ONE™ Homogeneous Membrane Integrity assay, Promega) assays respectively, in S100P-expressing (BxPC-3) and S100P-negative (Panc-1) cell lines, at a compound concentration of 10 μM. Cromolyn was used as a positive control.
1 × 10^5 Panc-1 cells and 1x10^5 BxPC-3 cells were plated and allowed to adhere for 24 h; the cells were treated with cromolyn or the hit compounds for up to 3 days. MTS (CellTiter® 96 AQueous One Solution assay, Promega) and LDH release (CytoTox-ONE™ Homogeneous Membrane Integrity assay, Promega) assays were carried out every 24 h for a total of 3 days. MTS data was calculated in the following manner: OD for background absorbance was subtracted and all samples normalized to untreated cells in order to ascertain whether any compound-dependent effect occurred.
as §3
10^5 BxPC3 cells were treated with 10 µM hit compounds for 24 hours, and the effect on LDH staining for each time point measured by fluorescence microplate reader.

[3] = tested on: BxPC-3 cells (S100P-positive); experiment: Transwell Matrigel invasion assay, BxPC-3; assay type: cell-based, Human; details: 10% FBS chemoattractant
Description: The effect of the S100P-binding hit compounds to inhibit cell invasion in S100P-expressing cells in vitro was measured via a Transwell invasion assay. In this assay, cells invade through the matrigel on upper Transwell chamber towards a lower chamber containing a chemoattractant.
Data is shown as mean ± SEM number of invasive cells as counted under the microscope (x100).
The Transwell invasion assay (Fisher Scientific, Germany) was performed using chambers with polyethylene terephthalate (PET) membrane filters with 8 μm pore size coated on the upper side with Matrigel (a layer of extracellular matrix (ECM) to mimic the process of the ECM invasion.
BxPC-3 and Panc-1 cells were cultured as described above for 24 h, were re-suspended and diluted in the appropriate serum-free medium to a seeding density of 2 × 10^5 cells/mL and added to the upper chambers of the Transwell invasion chambers. DMEM and RPMI-1640 media were supplemented with 10% fetal bovine serum (FBS; Sigma, USA) to act as a chemoattractant. […]
Cells that had passed through the matrigel coated membrane to the lower surface were fixed and stained with Diff-Quik stain kit (Fisher, USA) according to the manufacturer’s instructions. […] The number of invaded cells were counted in five different fields of view using the ImageJ 1.50i software (windows version of NIH Image, http://rsb.info.nih.gov/nih-image/). […]

[4] = Table 2, ELISA, analog series of hit 4

SMILES	concentration with significant inhibition of S100P-RAGE binding (S100P-RAGE interaction; ELISA)	melting point	pIC50 (S100P-RAGE interaction; [4])	ELISA inhibition (S100P-RAGE interaction; Table 2)	pIC50 (S100P-RAGE interaction; Table 1, ELISA, human S100P 2 μM coated wells, human RAGE-Fc)	LDH release of cells in upper Transwell chamber (BxPC-3 cells)	cytotoxicity (LDH release) [1]	LDH release of cells in upper Transwell chamber (Panc-1 cells)	maximum inhibition of S100P-RAGE binding (S100P-RAGE interaction; ELISA)	cytotoxicity (LDH release) [2]	inhibition of cell invasion to the lower chamber ([3]; BxPC-3, 10 μM, 48 h)	concentration with significant inhibition of invasion ([3]; BxPC-3, 48 h)
O=C(O)c1cc(=O)c2c(OCC(O)COc3cccc4oc(C(=O)O)cc(=O)c34)cccc2o1 [cromolyn]	≥ 100 nM					no significant increase in LDH release	neither the hit compounds nor cromolyn exhibited cytotoxicity	no significant increase in LDH release	56%	neither the hit compounds nor cromolyn exhibited cytotoxicity	did not exhibit a statistically significant effect	≥ 100 µM
O=C(O)c1cccc(N2C(=O)C3C4c5ccccc5C([N+](=O)[O-])(c5ccccc54)C3C2=O)c1 (centres unmarked) [Compound 4, 3-(9-Nitro-12,14-dioxo-9,10-dihydro-9,10-[3,4]epipyrroloanthracen-13-yl)benzoic acid]	≥ 10 nM	271 to 272 °C		10 nM∗∗	7.64							

Now from value to molecule, other results behind:

concentration with significant inhibition of S100P-RAGE binding (S100P-RAGE interaction; ELISA)	melting point	pIC50 (S100P-RAGE interaction; [4])	ELISA inhibition (S100P-RAGE interaction; Table 2)	pIC50 (S100P-RAGE interaction; Table 1, ELISA, human S100P 2 μM coated wells, human RAGE-Fc)	SMILES	LDH release of cells in upper Transwell chamber (BxPC-3 cells)	cytotoxicity (LDH release) [1]	LDH release of cells in upper Transwell chamber (Panc-1 cells)	maximum inhibition of S100P-RAGE binding (S100P-RAGE interaction; ELISA)	cytotoxicity (LDH release) [2]	inhibition of cell invasion to the lower chamber ([3]; BxPC-3, 10 μM, 48 h)	concentration with significant inhibition of invasion ([3]; BxPC-3, 48 h)
≤ 100 nM	228 to 230 °C	8.89	10 nM∗		O=C1C2C3c4ccccc4C(c4ccccc43)C2C(=O)N1c1cccc(F)c1 (centres unmarked) [Compound 4o, 13-(3-fluorophenyl)-9,10-dihydro-9,10-[3,4]epipyrroloanthracene-12,14-dione]							
≤ 100 nM	344 to 345 °C	9.32	<10 nM∗∗∗		O=C(O)c1ccc(N2C(=O)C3C4c5ccccc5C([N+](=O)[O-])(c5ccccc54)C3C2=O)cc1 (centres unmarked) [Compound 4f, 4-(9-Nitro-12,14-dioxo-9,10-dihydro-9,10-[3,4]epipyrroloanthracen-13-yl)benzoic acid]							
≤ 100 nM	241 to 243 °C		100 nM∗		O=C1C2C3c4ccccc4C([N+](=O)[O-])(c4ccccc43)C2C(=O)N1c1cccc(F)c1 (centres unmarked) [Compound 4b, 13-(3-fluorophenyl)-9-nitro-9,10-dihydro-9,10-[3,4]epipyrroloanthracene-12,14-dione]							
